These results are taken from article PMC9413739, “Tri- and Pentacyclic Azaphenothiazine as Pro-Apoptotic Agents in Lung Carcinoma with a Protective Potential to Healthy Cell Lines” (Molecules, 2022).

Structures are written as SMILES. “And” between values parts separate entries of the source, which are not always exact repeats. Identical values can stand only once.

One data set has as its system NHDF. Description: MTT viability assay, NHDF. The data set is classed as cell-based. To be noted: Homo sapiens, 72 h of incubation, mean of three experiments ± SD. Here is the method:
(§1) A standard anticancer drug, such as doxorubicin, was simultaneously used at the same concentrations range: 100, 50, 25, 12.5, 6.25, 3.15, 1.56 µM.
(§2) Biological experiments were conducted on a panel of cancer cell lines, adenocarcinoma human alveolar basal epithelial cells (A549), and human non-small cell lung carcinoma cell line (H1299). In order to determine the potential side effects of treatments, research was performed simultaneously on the human bronchial epithelial cells (BEAS-2B) and normal human dermal fibroblasts (NHDF); all cells received were received from the ATCC collections (Manassas, VA, USA). Cells were grown in DMEM F-12 medium (PAA, Warsaw, Poland) supplemented with 10% (v/v) heat-inactivated FBS (Eurx, Gdańsk, Poland) and 100 units/mL penicillin and 100 μg/mL streptomycin (Sigma-Aldrich, Darmstadt, Germany) at 37 °C in a humidified atmosphere with 5% CO2 [23, 27, 29].
(§3) Examination of cytotoxicity using MTT assay is the most convenient and fastest method for screening of cytotoxic action of the drugs. MTT assay is a colorimetric method for evaluation of cell viability based on mitochondrial dehydrogenase enzyme activity. The survival rate of the cells was calculated relative to the control cells, grown in standard conditions. Using this assay, IC50 values were calculated for each cell line treated with standard compounds and drugs. For […] assay, cells were seeded in 96-well plates at 1 × 10^4 cells/well in 0.2 mL completed medium 24 h before drug treatment. In the next step, cells were incubated for 72 h with the compounds (doses: 100; 50; 25; 12.5; 6.25; 3.15 and 1.56 µM) and then were washed three times with PBS (PAA, Laboratories GmbH, Cölbe, Germany). […] The levels of absorbance were measured at a wavelength of λ = 570 nm using a microplate spectrophotometer (Epoch; BioTek, Winooski, VT, USA) and expressed as a % of the untreated control, named the survival fraction [SF] […]

For another data set, the system named is BEAS-2B. The experiment in a line: MTT viability assay, BEAS-2B. The data set is classed as cell-based. The conditions noted are these: Homo sapiens, 72 h of incubation, mean of three experiments ± SD. On the procedure: as §1, §2, §3
A general note: Formazan colour is commonly taken as a measure of viable cells.

Another data set relates to A549. Description: MTT viability assay, A549. It is filed as cell-based. To be noted: Homo sapiens, A549, 72 h of incubation, mean of three experiments ± SD. Here is the method:
as §1, §2, §3

For the next data set, the system named is H1299. The experiment in a line: MTT viability assay, H1299. To be noted: Homo sapiens, NCI-H1299, H1299, 72 h of incubation, mean of three experiments ± SD. It is filed as cell-based. Here is the method: as §1, §2, §3
The test system of data set [1] is human lung carcinoma A549 and non-small lung carcinoma H1299. Description: MTT viability assay, summary over lung carcinoma lines. To be noted: range over DPT-1 and DPT-2 in A549 and H1299. It is filed as cell-based.
From the text: DPT-1 and DPT-2 initiated a biological response in the investigated cancer models with a different mechanism and at a different rate. Based on these findings, it can be concluded that DPT-1 and DPT-2 have potential as chemotherapeutic agents.
as §3

In data set [2] the test system is A549 cells. The experiment in a line: Cell cycle analysis via flow cytometry, A549. It is filed as cell-based, human. To be noted: A549, 50 µM, 72 h. Here is the method:
A lowered viability, followed by the MTT assay, could be a perfect indicator of the anticancer potential of drugs. However, this procedure measures the mitochondrial activity of the enzymatic complex. The real cytotoxicity against the antiproliferative action of drugs could be distinguished using the next step procedure, a cytometric cell cycle distribution, compared to the untreated controls. For that reason, the cell cycle was measured, followed by 72 h of incubation with DPT-1 and DPT-2. High doses of phenothiazines (50 µM) arrested the cell cycle at different phases, dependent on the cancer cell line. […] The phenomenon of sub-G1 phase reduction (lowered necrotic/apoptotic and general dead cells fraction), in comparison to the untreated control, could be explained by the cytostatic potential of phenothiazines. […] The MTT estimations of cells viability, calculated from the lowered absorbance, resulted from the antiproliferative and cytostatic role of DPT-1 and DPT-2 in the A549 cell line for S and G2/M cell cycle phases.
Many drugs work by inhibiting cell proliferation and causing cell cycle blockage. Using flow cytometry, the impact of new compounds on the cell cycle were determined. Cells incubated with compound were also analyzed for cellular death pathways, apoptosis induction, followed by Annexin-V assay. […]

The test system of data set [3] is H1299 cells. The experiment in a line: Cell cycle analysis via flow cytometry, H1299. To be noted: H1299, 50 µM, 72 h. It is filed as cell-based, human. On the procedure: (§4) Many drugs work by inhibiting cell proliferation and causing cell cycle blockage. Using flow cytometry, the impact of new compounds on the cell cycle were determined. Cells incubated with compound were also analyzed for cellular death pathways, apoptosis induction, followed by Annexin-V assay. Annexin-V is a protein that binds phosphatidylserine and allows early detection of apoptosis; additionally, iodium propide staining distinguishes it from necrosis. For apoptosis and cell cycle assays the cell cultures were plated in 6-well plates at a confluence of 1 × 10^5 in 2 mL of completed fresh DMEM-F12 medium, 24 h before drugs addition. An Aria III flow cytometer (Becton Dickinson; Franklin Lakes, NJ, USA) was used. The flow cytometry analysis was done on a free Flowing Software 2.5.1 program (by Perttu Terho, the Cell Imaging and Cytometry Core, Turku Bioscience Centre, Turku, Finland, with the support of Biocenter Finland).
(In general: In flow cytometry, cells or beads pass a laser one at a time.)

Data set [4] concerns A549 cells. The experiment in a line: Annexin-V apoptosis assay with PI staining, A549. It is filed as cell-based, human. The conditions noted are these: 72 h; for type of cellular death at lower doses: A549, 0.78–12.5 µM; for type of cellular death at higher doses: A549, 25–100 µM. Here is the method:
(§5) Followed by Annexin-V apoptosis assay after 72 h of incubation with DPT-1 and DPT-2 at a dose of 50 µM, the type of cellular death is possible to determine (Figure 6 and Figure 7). […] After 72 h of incubation of cells in both controls, some of the early and late apoptotic cells were observable, without necrotic ones.
as §4

The test system of data set [5] is H1299 cells. The experiment in a line: Annexin-V apoptosis assay with PI staining, H1299. It is filed as cell-based, human. The conditions noted are these: H1299, 50 µM, 72 h. On the procedure: as §5, §4
Another data set has as its system BEAS-2B cells. The experiment in a line: Live Cell Analyzer microscopic observation, BEAS-2B. The data set is classed as cell-based, human. The conditions noted are these: 72 h; for survival fraction in comparison to the untreated controls: 50 µM, images; for morphological observation: 100 µM. From the text:
(§6) The cells stayed mostly unattached and floating with some shrunken, which indicates a late stage of apoptosis and necrosis. Using cancer cell lines A549 and H1299, the cellular apoptotic and necrotic death was confirmed, followed by cell cycle cytometric analysis for the sub-G1 fraction (please compare Figure 4 and Figure 5). […] Such observations additionally explained the results of Annexin-V apoptosis assays, where some of the cells, mainly carcinomas, presented an early apoptosis fraction (Figure 6, Figure 7 and Figure 8).
(§7) Microscopic observation and images acquisition with Live Cell Analyzer (JuLI™ Br; NanoEnTek Inc., Seoul, Korea) was used to directly observe on-plate confluence, density, and cell viability and images acquisitions.

For data set [6], the system named is A549 cells. The experiment in a line: Live Cell Analyzer microscopic observation, A549. The data set is classed as cell-based, human. The conditions noted are these: 72 h; for survival fraction in comparison to the untreated controls: A549, 50 µM, images; for morphological observation: A549, 100 µM.
From the text: as §6, §7

Data set [7] relates to glioblastoma SNB-19, melanoma C-32, and breast cancer MCF-7 cell lines. Further details: method as in PMID 26950280. To be noted: SNB-19, C-32 and MCF-7 cell lines; cited from earlier work.
Data set [8] concerns normal fibroblast HFF-1 cell line. More on the design: method as in PMID 26950280. The conditions noted are these: cited from earlier work.
In data set [9] the test system is A2780 ovarian cancer cells. More on the design: method as in PMID 29123378. To be noted: A2780, dose-dependent inhibition; cited from earlier work.
Data set [10] has as its system normal kidney HEK293 cells. More on the design: method as in PMID 29123378. To be noted: cited from earlier work.
A further data set deals with normal heart H9C2 cells. Further details: method as in PMID 29123378. To be noted: cited from earlier work.
Data set [11] relates to glioblastoma SNB-19, colorectal carcinoma Caco-2, breast cancer MDA-MB-231, and lung cancer A549 cell lines. Further details: method as in PMID 30981160. To be noted: range over SNB-19, Caco-2, MDA-MB-231 and A549; cited from earlier work.
For data set [12], the system named is normal human dermal fibroblasts NHDF. Further details: method as in PMID 30981160. The conditions noted are these: cited from earlier work.

In general, IC50 refers to the point on the concentration scale where inhibition reaches its midpoint. `c1cnc2c(c1)Nc1ccncc1S2` [DPT-1, 10H-3,6-diazaphenothiazine]: the IC50 in the data set with NHDF is 2.246 ± 0.01 µM; in the data set on BEAS-2B, 2.468 ± 0.01 µM; in the data set with A549, 1.526 ± 0.004 µM; with H1299, 2.515 ± 0.005 µM; in data set [1], 1.52 to 12.9 µM; in [7] it was 0.46 µg/mL and 0.72 µg/mL. The IC50 in data set [9] was 0.62 µM. For the same molecule, the cell cycle arrest entry in the data set on A549 cells [2] is “S and G2/M arrest”. Besides, the cell cycle effect result in the data set on H1299 cells [3] is “cell cycle is stopped in the G0/G1-phase”. In addition, the “cells apoptotic (late apoptotic fraction, Annexin-V+/PI+)” value is listed as about 90% in the data set on A549 cells [4] (A549, 50 µM) and about 90% in the data set on H1299 cells [5]. In addition, the “type of cellular death” value is listed as “pro-apoptotic activity” in the data set with A549 cells [4] (A549, 50 µM) and “pro-apoptotic activity” in the data set with H1299 cells [5]. Also, the “type of cellular death at lower doses” value in the data set on A549 cells [4] is reported as “necrosis is visible”. For the same molecule, the “type of cellular death at higher doses” value in the data set with A549 cells [4] is on record as “induced cellular death via an apoptosis pathway”. Moreover, the “survival fraction in comparison to the untreated controls” value with BEAS-2B cells and in the data set with A549 cells [6] was 5–30% each time. Further, the morphological observation result with BEAS-2B cells and in the data set on A549 cells [6] was “typical morphological changes for cellular death” each time. In data set [8], the “action against normal cells” value is recorded as “non-toxic action”. Moreover, the “cytotoxicity compared with A2780” value (in data set [10]; in the data set on normal heart H9C2 cells) was “significantly less cytotoxicity” throughout.

With `CN(C)CCCN1c2cnc3ccccc3c2Sc2cc3ccccc3nc21` [DPT-2, 7-(3′-dimethylaminopropyl)diquinothiazine], the IC50 with NHDF is 18.77 ± 0.038 µM; in the data set on BEAS-2B, 11.26 ± 0.038 µM; in the data set on A549 it was 3.45 ± 0.054 µM; with H1299 it was 12.89 ± 0.013 µM; in data set [1], 1.52 to 12.9 µM; in data set [11] it was 0.3 to 3.44 µM. For the same molecule, the cell cycle arrest result in the data set on A549 cells [2] is “S and G2/M arrest”. Further, the cell cycle effect entry in the data set with H1299 cells [3] is “strong cytotoxic effect”. For the same molecule, the “tested population necrotic (Annexin-V−/PI+)” value was “circa 30%” in the data set on A549 cells [4] (A549, 50 µM) and “circa 30%” with H1299 cells [5]. In addition, the “type of cellular death” value in the data set with A549 cells [4] (A549, 50 µM) is “induced apoptosis, as well as necrosis”; in the data set with H1299 cells [5] it was “induced apoptosis, as well as necrosis”. Also, the “type of cellular death at lower doses” value with A549 cells [4] was “induced early apoptosis”. For the same molecule, the “type of cellular death at higher doses” value with A549 cells [4] is on record as “induced toxic, necrotic death”. For the same molecule, the “survival fraction in comparison to the untreated controls” value with BEAS-2B cells and in the data set on A549 cells [6] was 5–30% throughout. Further, the morphological observation result in the data set on BEAS-2B cells and with A549 cells [6] was “typical morphological changes for cellular death” each time. The “cytotoxicity against normal cells” value in data set [12] is given as “low cytotoxicity”.

With `COc1cccc2c1C(=O)c1c(O)c3c(c(O)c1C2=O)C[C@@](O)(C(=O)CO)C[C@@H]3O[C@H]1C[C@H](N)[C@H](O)[C@H](C)O1` [doxorubicin, reference compound], the IC50 is over 100 µM with NHDF, under 1.56 µM with BEAS-2B, 5.289 ± 0.004 µM in the data set on A549 and 7.749 ± 0.004 µM in the data set on H1299.
